From patent US5242826A, “Polypeptides for adhering cells to a substrate” (Regents of the University of Minnesota, priority 1991, dated 1993)

Experiment: 3H-heparin binding to type IV collagen and to NCl domain
Description: It was then established that ^3 H-heparin binds both to intact, native type IV collagen and to the isolated NCl domain. FIGS. 10 and 11 show the binding of a constant amount of ^3 H-heparin (85,000 dpm) to increasing concentrations of type IV collagen and the NCl domain, respectively. […] Type IV collagen binds 5-6 times more ^3 H-heparin than does the NCl domain.
Next, the binding of increasing concentrations of ^3 H-heparin to a constant amount of type IV collagen (3 μg) and an equimolar amount of the NCl domain (1 μg) was tested. […] In this type of experiment, approximately 4 times more ^3 H-heparin bound to type IV collagen than to the NCl domain.

binding of a constant amount of 3H-heparin to increasing concentrations of protein (3H-heparin 85,000 dpm, FIG. 10-11): saturable binding | 3H-heparin bound by type IV collagen relative to NCl domain (constant 3H-heparin (85,000 dpm), increasing protein): 5-6 times | 3H-heparin bound to type IV collagen relative to NCl domain (increasing 3H-heparin, constant protein (3 μg vs 1 μg)): approximately 4 times | binding of increasing concentrations of 3H-heparin to a constant amount of protein (type IV collagen 3 μg, NCl domain 1 μg (equimolar), FIG. 12-13): saturable binding
Substance: type IV collagen: basement membrane glycoprotein, MW about 500,000, two α1 chains and one α2 chain
